# Measured values published in ChEMBL document CHEMBL5058564, “EUbOPEN Chemogenomics Library 2 (Incucyte)” (2022).
# Key:
# Type in all cases: toxicity, cell-based
# HEK-293T = assay: Incucyte cell viability with HEK293T; conditions: human, 10 µM, compound concentration 10 uM
# Fibroblast = assay: Incucyte cell viability with human fibroblast; conditions: 10 µM, compound concentration 10 uM
# U2OS = assay: Incucyte cell viability with U2OS; conditions: human, 10 µM, compound concentration 10 uM
# [1] = 0 h, replicate number 1, timepoint 0 hours
# [2] = 0 h, replicate number 2, timepoint 0 hours
# [3] = 6 h, replicate number 1, timepoint 6 hours
# [4] = 6 h, replicate number 2, timepoint 6 hours
# [5] = 12 h, replicate number 1, timepoint 12 hours
# [6] = 12 h, replicate number 2, timepoint 12 hours
# [7] = 18 h, replicate number 1, timepoint 18 hours
# [8] = 18 h, replicate number 2, timepoint 18 hours
# [9] = 24 h, replicate number 1, timepoint 24 hours
# [10] = 24 h, replicate number 2, timepoint 24 hours
# Note: unitless GR value; below 1 slowed growth and below 0 cell loss.
SMILES,Growth Rate (HEK-293T; [1]),Growth Rate (HEK-293T; [2]),Growth Rate (HEK-293T; [3]),Growth Rate (HEK-293T; [5]),Growth Rate (HEK-293T; [6]),Growth Rate (HEK-293T; [7]),Growth Rate (HEK-293T; [8]),Growth Rate (HEK-293T; [9]),Growth Rate (HEK-293T; [10]),Growth Rate (Fibroblast; [1]),Growth Rate (Fibroblast; [2]),Growth Rate (Fibroblast; [5]),Growth Rate (Fibroblast; [6]),Growth Rate (Fibroblast; [9]),Growth Rate (U2OS; [1]),Growth Rate (U2OS; [3]),Growth Rate (U2OS; [5]),Growth Rate (Fibroblast; [3]),Growth Rate (U2OS; [2]),Growth Rate (U2OS; [7]),further results
Nc1nc(Nc2ccccc2)nc2c1ncn2[C@@H]1O[C@H](CO)[C@@H](O)[C@H]1O,0.49,-0.14,0.52,0.7,0.63,0.76,0.95,0.85,0.9,0.77,0.2,0.83,0.96,0.93,0.4,0.95,0.84,,,,Growth Rate (HEK-293T; [4]): 0.76; Growth Rate (U2OS; [8]): 0.91; Growth Rate (U2OS; [9]): 0.93
Cl.Cl.OCCOCCN1CCN(C(c2ccccc2)c2ccc(Cl)cc2)CC1 (stereo not drawn) [HYDROXYZINE HYDROCHLORIDE],,,0.77,0.52,0.45,0.19,0.39,0.04,0.32,,0.31,0.82,,0.77,,0.46,,0.49,-1,,Growth Rate (HEK-293T; [4]): 0.15; Growth Rate (Fibroblast; [7]): 0.88
CN1C[C@H](C(=O)N[C@]2(C)O[C@@]3(O)[C@@H]4CCCN4C(=O)[C@H](Cc4ccccc4)N3C2=O)C[C@@H]2c3cccc4[nH]cc(c34)C[C@H]21.CS(=O)(=O)O [DIHYDROERGOTAMINE MESYLATE],-0.57,-0.38,,0.96,,0.98,,,,-0.33,-0.55,,,,0.01,0.44,,,,0.95,
Cc1sc2c(c1C)C(c1ccc(Cl)cc1)=N[C@H](CC(=O)OC(C)(C)C)c1nnc(C)n1-2,0.38,0.63,,,0.95,0.85,0.87,0.81,0.86,,,0.45,,0.98,,0.83,0.95,-0.25,,0.97,Growth Rate (Fibroblast; [7]): 0.98; Growth Rate (U2OS; [9]): 0.92
CC[C@H](NC(=O)c1c(C)c(-c2ccccc2)nc2ccccc12)c1ccccc1 [SB-222200],,,0.76,0.77,0.72,0.97,,0.88,,,,0.45,0.48,0.67,,,,0.45,-1,,Growth Rate (HEK-293T; [4]): 0.41; Growth Rate (Fibroblast; [4]): -0.34; Growth Rate (Fibroblast; [7]): 0.64; Growth Rate (Fibroblast; [8]): 0.91; Growth Rate (Fibroblast; [10]): 0.98; Growth Rate (U2OS; [6]): 0.93; Growth Rate (U2OS; [8]): 0.84; Growth Rate (U2OS; [10]): 0.93
CN[C@@H](C)C(=O)N[C@H](C(=O)N1CCC[C@H]1C(=O)Nc1snnc1-c1ccccc1)C1CCCCC1 [GDC-0152],0.68,0.53,0.43,0.37,0.71,0.36,0.66,0.4,0.52,0.95,0.59,-0.63,-0.17,-0.44,-0.64,0.5,0.49,-0.81,0.74,0.87,Growth Rate (Fibroblast; [4]): -0.33; Growth Rate (Fibroblast; [7]): -0.58; Growth Rate (Fibroblast; [8]): -0.22; Growth Rate (Fibroblast; [10]): -0.21
CN1CCC(c2c[nH]c3ccc(O)cc23)CC1,,0.25,,,0.98,0.98,0.89,,0.89,0.18,-0.25,,,,0.81,,0.97,0.11,0.6,,
CC[C@@]1(O)C(=O)OCc2c1cc1n(c2=O)Cc2cc3ccccc3nc2-1 [CAMPTOTHECIN],-0.84,0.83,-0.29,0.88,,,,0.65,0.41,-0.02,0.11,,,,-0.11,0.7,0.75,1,-0.34,0.59,Growth Rate (U2OS; [4]): 0.82; Growth Rate (U2OS; [6]): 0.64; Growth Rate (U2OS; [8]): 0.33; Growth Rate (U2OS; [9]): 0.48; Growth Rate (U2OS; [10]): 0.2
NCCc1cn(S(=O)(=O)c2c(Cl)nc3sccn23)c2ccccc12.O=C(O)C(=O)O,,,-0.34,0.22,0.08,0.4,0.51,0.57,0.52,,,-0.66,-0.5,-0.67,,-0.18,0.52,-0.77,,0.72,Growth Rate (Fibroblast; [4]): -0.79; Growth Rate (Fibroblast; [7]): -0.67; Growth Rate (Fibroblast; [8]): -0.42; Growth Rate (Fibroblast; [10]): -0.31; Growth Rate (U2OS; [4]): 0.34; Growth Rate (U2OS; [6]): 0.36; Growth Rate (U2OS; [8]): 0.45; Growth Rate (U2OS; [9]): 0.87; Growth Rate (U2OS; [10]): 0.57
Cc1noc(C)c1-c1cnc2c(-c3ccc(C(=O)O)cc3)cn([C@@H](C)c3ccccn3)c2c1 [PLX-51107],,,,,,0.88,,0.6,,,0.17,,0.99,,-0.01,0.72,0.5,0.13,-0.06,0.73,Growth Rate (Fibroblast; [4]): 0.81; Growth Rate (U2OS; [4]): 0.86; Growth Rate (U2OS; [8]): 0.96; Growth Rate (U2OS; [9]): 0.96
